DBAASP
Converted amounts (≈) assume the structure as drawn. “And” between values parts separate entries of the source, which are not always exact repeats. Equal entries are not always repeated.

Columns and labels:
Test in all cases: ≥ marks a high value that may be exact or a test limit, other limits are often not marked, values filed in µg/mL are converted to µM
Escherichia coli UB1005 = tested on: Escherichia coli UB1005
Pseudomonas aeruginosa = tested on: Pseudomonas aeruginosa
Salmonella typhimurium = tested on: Salmonella typhimurium
Escherichia coli 55B5 = tested on: Escherichia coli 55B5
[1] = tested on: Streptococcus mutans UA159
[2] = tested on: Streptococcus sanguinis NY101
[3] = tested on: Streptococcus mitis ATCC 903
Staphylococcus aureus = tested on: Staphylococcus aureus
[4] = tested on: Pseudomonas aeruginosa PAK
[5] = tested on: Streptococcus gordonii Challis DL1
[6] = tested on: Pseudomonas aeruginosa NBRC 13275
[7] = tested on: Staphylococcus aureus NBRC 13276
[8] = tested on: Escherichia coli DH5alpha
Escherichia coli D31 = tested on: Escherichia coli D31
[9] = tested on: Listeria monocytogenes DSM 20600
Listeria grayi DSM 20601 = tested on: Listeria grayi DSM 20601
[10] = tested on: Micrococcus luteus DSM 20030
[11] = tested on: Listeria fleischmannii DSM 24998
[12] = tested on: Pseudomonas aeruginosa H187
[13] = tested on: Staphylococcus epidermidis C621
[14] = tested on: Corynebacterium xerosis C875
[15] = tested on: Salmonella typhimurium C610
[16] = tested on: Staphylococcus aureus SAP 0017
[17] = tested on: Salmonella typhimurium C587
[18] = tested on: Staphylococcus aureus ATCC 25923
Escherichia coli DC2 = tested on: Escherichia coli DC2
[19] = tested on: Pseudomonas aeruginosa H188
[20] = tested on: Enterococcus faecalis C625
Bacillus subtilis C971 = tested on: Bacillus subtilis C971
[21] = tested on: Listeria monocytogenes EGD
[22] = tested on: Staphylococcus aureus ATCC 33591
Escherichia coli ML-35p = tested on: Escherichia coli ML-35p
Candida albicans 820 = tested on: Candida albicans 820
[23] = tested on: Escherichia coli KCCM 11569
[24] = tested on: Bacillus subtilis KCCM 11495

In the case of `CC[C@H](C)[C@H](NC(=O)[C@H](C)N)C(=O)N[C@@H](Cc1cnc[nH]1)C(=O)N[C@@H](CCCCN)C(=O)N[C@@H](CC(C)C)C(=O)N[C@@H](C)C(=O)N[C@@H](Cc1cnc[nH]1)C(=O)N[C@@H](CCCCN)C(=O)N[C@@H](CC(C)C)C(=O)N[C@@H](CC(C)C)C(=O)N1CCC[C@H]1C(=O)N[C@@H](CCCCN)C(=O)N[C@H](C(=O)N[C@@H](CC(C)C)C(=O)N[C@@H](CCCN=C(N)N)C(=O)N[C@@H](C)C(=O)N[C@H](C(=O)N[C@@H](CCCCN)C(=O)N[C@@H](CCCCN)C(=O)N[C@@H](CC(C)C)C(=O)N[C@@H](C)C(=O)N[C@@H](CC(N)=O)C(=O)O)C(C)C)[C@@H](C)O` [AIHKLAHKLLPKTLRAVKKLAN], the MIC (Escherichia coli UB1005) is reported as 20.5 µM (≈ 50.5 µg/mL), the MIC (Pseudomonas aeruginosa) is reported as 20.5 µM (≈ 50.5 µg/mL) and the MIC (Salmonella typhimurium) is reported as 15.5 µM (≈ 38.2 µg/mL). The MIC (Escherichia coli 55B5) was 25 µM (≈ 61.6 µg/mL).

`CC[C@H](C)[C@H](NC(=O)[C@H](C)N)C(=O)N[C@@H](Cc1cnc[nH]1)C(=O)N[C@@H](CCCCN)C(=O)N[C@@H](CC(C)C)C(=O)N[C@@H](C)C(=O)N[C@@H](Cc1cnc[nH]1)C(=O)N[C@@H](CCCCN)C(=O)N[C@H](C(=O)N[C@@H](CC(C)C)C(=O)N[C@@H](CCCCN)C(=O)N[C@@H](CCCCN)C(=O)N[C@H](C(=O)N[C@@H](CC(C)C)C(=O)N[C@@H](CCCN=C(N)N)C(=O)N[C@@H](C)C(=O)N[C@H](C(=O)N[C@@H](CCCCN)C(=O)N[C@@H](CCCCN)C(=O)N[C@@H](CC(C)C)C(=O)N[C@@H](C)C(=O)N[C@@H](CC(N)=O)C(=O)O)C(C)C)[C@@H](C)O)[C@@H](C)O` [AIHKLAHKTLKKTLRAVKKLAN] showed an MIC (Escherichia coli UB1005) of 15.5 µM (≈ 38.5 µg/mL), an MIC (Pseudomonas aeruginosa) of 12.5 µM (≈ 31 µg/mL) and an MIC (Salmonella typhimurium) of 10.5 µM (≈ 26.1 µg/mL). It also gave an MIC (Escherichia coli 55B5) of 14.5 µM (≈ 36 µg/mL).

In the case of `CC[C@H](C)[C@H](NC(=O)CNC(=O)CNC(=O)CNC(=O)[C@H](Cc1ccccc1)NC(=O)[C@H](CCCN=C(N)N)NC(=O)[C@H](Cc1cnc[nH]1)NC(=O)[C@@H](NC(=O)[C@H](Cc1ccccc1)NC(=O)[C@H](Cc1cnc[nH]1)NC(=O)[C@H](CCCCN)NC(=O)[C@@H](NC(=O)[C@@H](N)Cc1ccccc1)[C@@H](C)CC)[C@@H](C)CC)C(=O)N[C@@H](CCCCN)C(=O)N[C@@H](CCC(N)=O)C(=O)N[C@@H](CC(C)C)C(=O)N[C@@H](CC(C)C)C(=O)N[C@@H](Cc1cnc[nH]1)C(=O)N[C@@H](Cc1ccccc1)C(=O)N[C@@H](Cc1ccccc1)C(=O)N[C@@H](CCC(N)=O)C(=O)N[C@@H](CCCN=C(N)N)C(=O)N[C@@H](Cc1ccccc1)C(N)=O` [FIKHFIHRFGGGIKQLLHFFQRF], the MIC [1] is reported as 2.78 µM (≈ 8 µg/mL), the MIC [2] is reported as 11.1 µM (≈ 32 µg/mL) and the MIC [3] is reported as 5.57 µM (≈ 16 µg/mL). For the same compound, the MIC (Staphylococcus aureus) was 21.7 µM (≈ 62.5 µg/mL), the MIC [4] was at least 43.5 µM and the MIC [5] was 11.1 µM (≈ 32 µg/mL).

`CC[C@H](C)[C@H](NC(=O)CNC(C)=O)C(=O)NCC(=O)N[C@@H](CCCCN)C(=O)N[C@@H](Cc1ccccc1)C(=O)N[C@@H](CC(C)C)C(=O)N[C@@H](Cc1cnc[nH]1)C(=O)N[C@@H](CO)C(=O)N[C@@H](C)C(=O)N[C@@H](CCCCN)C(=O)N[C@@H](CCCCN)C(=O)N[C@@H](Cc1ccccc1)C(=O)NCC(=O)N[C@@H](CCCCN)C(=O)N[C@@H](C)C(=O)N[C@@H](Cc1ccccc1)C(=O)N[C@H](C(=O)NCC(=O)N[C@@H](CCC(=O)O)C(=O)N[C@H](C(=O)N[C@@H](CCSC)C(=O)N[C@@H](CC(N)=O)C(=O)N[C@@H](CO)C(N)=O)[C@@H](C)CC)C(C)C` [GIGKFLHSAKKFGKAFVGEIMNS] was tested, and the MIC [6] was 25 µM (≈ 62.7 µg/mL), the MIC [7] was at least 200 µM and the MIC [8] was at least 50 µM.

Compound `CC[C@H](C)[C@H](N)C(=O)N[C@@H](Cc1ccccc1)C(=O)N[C@@H](CCCCN)C(=O)N[C@@H](C)C(=O)N[C@H](C(=O)N[C@@H](Cc1c[nH]c2ccccc12)C(=O)N[C@@H](CO)C(=O)NCC(=O)N[C@H](C(=O)N[C@@H](CCCCN)C(=O)N[C@@H](CO)C(=O)N[C@@H](CC(C)C)C(=O)N[C@@H](Cc1ccccc1)C(=O)O)[C@@H](C)CC)[C@@H](C)CC` [IFKAIWSGIKSLF] has an MIC (Escherichia coli D31) of 15 µM (≈ 22.6 µg/mL), an MIC [9] of 2 µM (≈ 3.02 µg/mL) and an MIC (Listeria grayi DSM 20601) of 2 µM (≈ 3.02 µg/mL). The MIC [10] was 2 µM (≈ 3.02 µg/mL) and the MIC [11] was 2 µM (≈ 3.02 µg/mL).

In the case of `CC[C@H](C)[C@H](NC(=O)[C@H](C)NC(=O)[C@H](CCCCN)NC(=O)[C@H](CC(C)C)NC(=O)[C@H](C)NC(=O)[C@@H](NC(=O)[C@H](Cc1cnc[nH]1)NC(=O)[C@H](CC(C)C)NC(=O)[C@@H](NC(=O)[C@@H](NC(=O)[C@H](CCCCN)NC(=O)[C@@H](NC(=O)[C@H](C)NC(=O)[C@@H](NC(=O)[C@H](CCCCN)NC(=O)[C@H](Cc1ccccc1)NC(=O)[C@@H](NC(=O)[C@H](CCCCN)NC(=O)[C@H](CC(C)C)NC(=O)[C@H](Cc1ccccc1)NC(=O)[C@H](CO)NC(=O)[C@H](CCCCN)NC(=O)[C@H](Cc1c[nH]c2ccccc12)NC(=O)[C@H](CCCCN)NC(C)=O)[C@@H](C)O)C(C)C)C(C)C)[C@@H](C)O)C(C)C)[C@@H](C)O)C(=O)N[C@@H](CO)C(=O)N[C@@H](CO)C(N)=O` [KWKSFLKTFKVAVKTVLHTALKAISS], the MIC [12] is reported as 3.44 µM (≈ 10.2 µg/mL), the MIC [13] is reported as 2.73 µM (≈ 8.11 µg/mL) and the MIC [14] is reported as 0.443 µM (≈ 1.32 µg/mL). For the same compound, the MIC (Escherichia coli UB1005) was 2.18 µM (≈ 6.49 µg/mL), the MIC [15] was 1.71 µM (≈ 5.07 µg/mL) and the MIC [16] was 4.33 µM (≈ 12.9 µg/mL). The MIC [17] was 10.9 µM (≈ 32.4 µg/mL), the MIC [18] was 5.46 µM (≈ 16.2 µg/mL) and the MIC (Escherichia coli DC2) was 1.36 µM (≈ 4.06 µg/mL). For the same compound, the MIC [19] was 6.89 µM (≈ 20.5 µg/mL), the MIC [20] was 6.89 µM (≈ 20.5 µg/mL) and the MIC (Bacillus subtilis C971) was 0.853 µM (≈ 2.54 µg/mL).

In the case of `CC[C@H](C)[C@@H]1NC(=O)[C@H](CC(N)=O)NC(=O)[C@@H]2CSSC[C@@H]3NC(=O)[C@H](CCCN=C(N)N)NC(=O)[C@@H](NC(=O)[C@@H](NC(=O)[C@@H](N)CCCN=C(N)N)[C@@H](C)O)CSSC[C@@H](C(=O)N[C@@H](CCCN=C(N)N)C(=O)O)NC(=O)[C@H](CSSC[C@H](NC(=O)[C@H](CCCN=C(N)N)NC(=O)CNC(=O)[C@H](CC(C)C)NC(=O)[C@H](CCCN=C(N)N)NC3=O)C(=O)N[C@@H](CO)C(=O)N[C@@H](CCCN=C(N)N)C(=O)N[C@@H](CCCN=C(N)N)C(=O)N[C@@H](CCC(=O)O)C(=O)N[C@@H](CO)C(=O)N[C@@H](Cc3ccc(O)cc3)C(=O)N[C@@H](CO)C(=O)NCC(=O)N[C@@H](CO)C(=O)N2)NC(=O)[C@H](CC(C)C)NC(=O)[C@H](CO)NC(=O)[C@H](Cc2ccc(O)cc2)NC(=O)[C@H]([C@@H](C)CC)NC(=O)[C@H](CCCN=C(N)N)NC(=O)CNC(=O)[C@H](CC(N)=O)NC1=O` [RTCRCRLGRCSRRESYSGSCNINGRIYSLCCR], the MIC [21] is reported as 1.2 µM and 1.9 µM, the MIC [22] is reported as 4.5 µM and 7.8 µM and the MIC (Escherichia coli ML-35p) is reported as 2 µM and 3.1 µM. The MIC (Candida albicans 820) was 2.6 µM and 3.8 µM.

For `CC(C)C[C@H](NC(=O)CNC(=O)[C@H](Cc1cnc[nH]1)NC(=O)[C@H](Cc1cnc[nH]1)NC(=O)[C@H](CC(C)C)NC(=O)[C@H](CC(C)C)NC(=O)[C@H](C)NC(=O)[C@H](CC(N)=O)NC(=O)[C@H](CC(C)C)NC(=O)[C@@H](N)Cc1c[nH]c2ccccc12)C(=O)N[C@@H](CC(N)=O)C(=O)N[C@@H](CS)C(=O)N[C@@H](C)C(N)=O` [WLNALLHHGLNCA], the MIC [23] was at least 43.8 µM and the MIC [24] was at least 43.8 µM.
